How the values were obtained:
AXL = biological target: T1, AXL (Homo sapiens, UniProt P30530); assay: TR-FRET kinase activity assay, AXL; format: biochemical; details: ATP at Km, 60 minutes
T1 sequence (P30530 26-894): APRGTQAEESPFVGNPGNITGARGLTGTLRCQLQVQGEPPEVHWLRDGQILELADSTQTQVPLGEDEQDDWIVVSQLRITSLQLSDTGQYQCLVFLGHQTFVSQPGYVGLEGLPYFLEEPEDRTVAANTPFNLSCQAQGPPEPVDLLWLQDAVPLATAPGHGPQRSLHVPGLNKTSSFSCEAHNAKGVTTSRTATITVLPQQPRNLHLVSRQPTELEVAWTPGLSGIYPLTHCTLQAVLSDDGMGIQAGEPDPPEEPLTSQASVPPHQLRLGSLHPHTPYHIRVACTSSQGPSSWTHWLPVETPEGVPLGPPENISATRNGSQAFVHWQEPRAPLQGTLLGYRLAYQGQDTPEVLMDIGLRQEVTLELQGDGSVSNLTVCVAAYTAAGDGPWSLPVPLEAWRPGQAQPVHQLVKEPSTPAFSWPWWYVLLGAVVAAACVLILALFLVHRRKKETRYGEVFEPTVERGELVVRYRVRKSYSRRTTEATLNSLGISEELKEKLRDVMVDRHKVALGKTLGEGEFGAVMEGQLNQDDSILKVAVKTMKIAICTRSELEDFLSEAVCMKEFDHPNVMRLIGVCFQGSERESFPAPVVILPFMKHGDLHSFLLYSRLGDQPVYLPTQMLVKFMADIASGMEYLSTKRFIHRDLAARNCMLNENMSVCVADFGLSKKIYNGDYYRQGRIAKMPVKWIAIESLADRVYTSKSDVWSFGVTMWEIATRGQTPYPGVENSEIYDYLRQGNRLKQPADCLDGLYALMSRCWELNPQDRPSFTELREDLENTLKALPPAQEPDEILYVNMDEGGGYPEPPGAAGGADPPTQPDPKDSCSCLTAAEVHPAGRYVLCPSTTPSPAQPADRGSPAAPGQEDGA
Method: (§1) IC50 values for compound inhibition of AXL, FLT3, MERTK and TYRO3 activity were determined by using a TR-FRET activity assay. A polypeptide substrate with a fluorescent label is phosphorylated on a tyrosine by each enzyme, where the now phosphorylated product is bound by a Europium-labeled antibody specific to that phosphorylation site. The proximity between the antibody and the substrate gives a signal known as TR-FRET. As the enzyme is inhibited by compound, less phosphorylated peptide product is made causing a decrease in overall signal.
(§2) Activity assays were performed in a 384-well, small volume, black microplates in an active enzyme volume of 10 μL and final developed volume of 20 μL. Final assay conditions are 50 mM HEPES pH 7.5, 10 mM MgCl2, 1 mM EGTA, 0.01% Brij 35 and 1 mM DTT all at RT. Enzyme, substrate labeled peptide and compound are mixed, and then the reaction is initiated with the addition of ATP at Km concentration for each enzyme. The reaction is allowed to run 60 minutes and then quenched with a 12.5 mM EDTA (ethylenediamine tetraacetic acid) solution. The plate is then developed with the addition of Europium labeled antibody for a final volume of 20 μL and is then incubated for 30 minutes in darkness. Plates are read in a Pherastar plate reader. Data is analyzed in GraphPad PRISM.
(§3) The results of these assays are shown in Table 1, below, wherein “No.” designates compound number (FIG. 1); “A” represents a value of ≤100 nM; “B” a value of >100 nM and ≤1 μM; “C” a value of >1 μM and ≤10 μM; “D” a value of >10 μM; “ND” is not determined. The ratio of Mer to FLT3 is calculated as follows: FLT3 IC50/Mer IC50. “+” represents a ratio of >2.0 and <10; “++” represents a ratio of between 10 and 100; and “+++” represents a ratio of >100.

MERTK = biological target: T2, MERTK (Homo sapiens, UniProt Q12866); assay: TR-FRET kinase activity assay, MERTK; format: biochemical; details: for IC50: TR-FRET activity assay, ATP at Km, 60 minutes, read-out: Mer IC50; for FLT3/Mer ratio (FLT3 IC50/Mer IC50): ratio of Mer to FLT3: FLT3 IC50/Mer IC50
T2 sequence (Q12866 21-999): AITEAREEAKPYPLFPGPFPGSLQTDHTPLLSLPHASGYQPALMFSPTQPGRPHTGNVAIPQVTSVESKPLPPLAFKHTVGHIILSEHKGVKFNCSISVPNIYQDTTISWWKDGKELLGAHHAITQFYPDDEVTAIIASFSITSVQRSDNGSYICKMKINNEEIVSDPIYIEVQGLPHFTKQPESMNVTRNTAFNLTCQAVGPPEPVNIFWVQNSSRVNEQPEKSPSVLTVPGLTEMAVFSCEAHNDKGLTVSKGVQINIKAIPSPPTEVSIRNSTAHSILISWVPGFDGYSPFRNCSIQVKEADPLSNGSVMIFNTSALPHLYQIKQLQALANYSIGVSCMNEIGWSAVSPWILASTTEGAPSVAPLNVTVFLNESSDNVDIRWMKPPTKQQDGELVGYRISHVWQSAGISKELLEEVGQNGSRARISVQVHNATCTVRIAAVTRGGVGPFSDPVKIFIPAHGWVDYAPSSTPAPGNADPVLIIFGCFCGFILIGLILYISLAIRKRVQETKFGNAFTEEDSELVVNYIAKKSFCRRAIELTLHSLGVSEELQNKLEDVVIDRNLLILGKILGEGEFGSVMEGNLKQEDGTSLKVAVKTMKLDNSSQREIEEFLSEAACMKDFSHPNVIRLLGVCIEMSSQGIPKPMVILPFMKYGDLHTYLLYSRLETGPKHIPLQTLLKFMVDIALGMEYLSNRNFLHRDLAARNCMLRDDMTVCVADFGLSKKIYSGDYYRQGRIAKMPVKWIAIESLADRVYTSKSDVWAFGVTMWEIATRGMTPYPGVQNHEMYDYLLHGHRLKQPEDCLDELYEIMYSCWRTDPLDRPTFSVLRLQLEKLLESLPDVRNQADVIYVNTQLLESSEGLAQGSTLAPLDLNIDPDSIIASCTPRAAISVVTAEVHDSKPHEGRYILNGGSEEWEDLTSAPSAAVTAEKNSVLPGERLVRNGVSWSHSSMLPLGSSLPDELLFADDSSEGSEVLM
Method: as §1, §2, §3

## Cc1cc(-c2cc([C@H]3CC[C@H](O)CC3)n3nc(N[C@@H](C)CC(F)(F)F)ncc23)ccn1 [Compound 213]
AXL
  IC50: ≤ 0.1 µM
MERTK
  IC50: ≤ 0.1 µM
  FLT3/Mer ratio (FLT3 IC50/Mer IC50): +++ (“+++” represents a ratio of >100)

## CC(C)OC[C@H](C)Nc1ncc2c(-c3ccc(CN4CCOCC4)cc3)cc([C@H]3CC[C@H](O)CC3)n2n1 [Compound 214]
AXL
  IC50: 0.1 to 1 µM
MERTK
  IC50: ≤ 0.1 µM
  FLT3/Mer ratio (FLT3 IC50/Mer IC50): +++ (“+++” represents a ratio of >100)

## Cc1cc(-c2cc([C@H]3CC[C@H](O)CC3)n3nc(N[C@@H](C)COC(C)C)ncc23)ccn1 [Compound 215]
AXL
  IC50: 0.1 to 1 µM
MERTK
  IC50: ≤ 0.1 µM
  FLT3/Mer ratio (FLT3 IC50/Mer IC50): +++ (“+++” represents a ratio of >100)

## C[C@@H](CC1CC1)Nc1ncc2c(-c3ccc(CN4CCN(C)CC4)cc3)cc([C@H]3CC[C@H](O)CC3)n2n1 [Compound 216]
AXL
  IC50: ≤ 0.1 µM
MERTK
  IC50: ≤ 0.1 µM
  FLT3/Mer ratio (FLT3 IC50/Mer IC50): ++ (“++” represents a ratio of between 10 and 100)

## COC[C@H](C)Nc1ncc2c(-c3cccc(CN4CCOCC4)c3)cc([C@H]3CC[C@H](O)CC3)n2n1 [Compound 217]
AXL
  IC50: 0.1 to 1 µM
MERTK
  IC50: ≤ 0.1 µM
  FLT3/Mer ratio (FLT3 IC50/Mer IC50): +++ (“+++” represents a ratio of >100)

## COC[C@H](C)Nc1ncc2c(-c3cccc(CN4CCN(C)CC4)c3)cc([C@H]3CC[C@H](O)CC3)n2n1 [Compound 218]
AXL
  IC50: 0.1 to 1 µM
MERTK
  IC50: ≤ 0.1 µM
  FLT3/Mer ratio (FLT3 IC50/Mer IC50): +++ (“+++” represents a ratio of >100)

## COC[C@H](C)Nc1ncc2c(-c3cncc(CN4CCOCC4)c3)cc([C@H]3CC[C@H](O)CC3)n2n1 [Compound 219]
AXL
  IC50: 0.1 to 1 µM
MERTK
  IC50: ≤ 0.1 µM
  FLT3/Mer ratio (FLT3 IC50/Mer IC50): +++ (“+++” represents a ratio of >100)

## COC[C@H](C)Nc1ncc2c(-c3cnn(Cc4cccnc4)c3)cc([C@H]3CC[C@H](O)CC3)n2n1 [Compound 220]
AXL
  IC50: ≤ 0.1 µM
MERTK
  IC50: ≤ 0.1 µM
  FLT3/Mer ratio (FLT3 IC50/Mer IC50): +++ (“+++” represents a ratio of >100)

## COCC(C)Nc1ncc2c(-c3cnn(C4COC4)c3)cc(C3CCC(O)CC3)n2n1 (stereo not drawn) [Compound 221]
AXL
  IC50: ≤ 0.1 µM
MERTK
  IC50: ≤ 0.1 µM
  FLT3/Mer ratio (FLT3 IC50/Mer IC50): +++ (“+++” represents a ratio of >100)

## COC[C@H](C)Nc1ncc2c(-c3cnn(CCC#N)c3)cc([C@H]3CC[C@H](O)CC3)n2n1 [Compound 222]
AXL
  IC50: ≤ 0.1 µM
MERTK
  IC50: ≤ 0.1 µM
  FLT3/Mer ratio (FLT3 IC50/Mer IC50): +++ (“+++” represents a ratio of >100)

## COC[C@H](C)Nc1ncc2c(-c3cccc(CN4CCC(F)(F)C4)c3)cc([C@H]3CC[C@H](O)CC3)n2n1 [Compound 223]
AXL
  IC50: 0.1 to 1 µM
MERTK
  IC50: ≤ 0.1 µM
  FLT3/Mer ratio (FLT3 IC50/Mer IC50): +++ (“+++” represents a ratio of >100)

## COC[C@H](C)Nc1ncc2c(-c3cccc(CN4CC[C@@H](F)C4)c3)cc([C@H]3CC[C@H](O)CC3)n2n1 [Compound 224]
AXL
  IC50: 0.1 to 1 µM
MERTK
  IC50: ≤ 0.1 µM
  FLT3/Mer ratio (FLT3 IC50/Mer IC50): +++ (“+++” represents a ratio of >100)

## COCC(C)Nc1ncc2c(-c3cccc(CN4CCC(F)C4)c3)cc(C3CCC(O)CC3)n2n1 (stereo not drawn) [Compound 225]
AXL
  IC50: ≤ 0.1 µM
MERTK
  IC50: ≤ 0.1 µM
  FLT3/Mer ratio (FLT3 IC50/Mer IC50): +++ (“+++” represents a ratio of >100)

## COC[C@H](C)Nc1ncc2c(-c3ccc(C(=O)N4CCN(C)CC4)nc3)cc([C@H]3CC[C@H](O)CC3)n2n1 [Compound 226]
AXL
  IC50: 0.1 to 1 µM
MERTK
  IC50: ≤ 0.1 µM
  FLT3/Mer ratio (FLT3 IC50/Mer IC50): +++ (“+++” represents a ratio of >100)

## COC[C@H](C)Nc1ncc2c(-c3ccc(C(=O)N4CCOCC4)nc3)cc([C@H]3CC[C@H](O)CC3)n2n1 [Compound 227]
AXL
  IC50: 0.1 to 1 µM
MERTK
  IC50: ≤ 0.1 µM
  FLT3/Mer ratio (FLT3 IC50/Mer IC50): +++ (“+++” represents a ratio of >100)

## COC[C@H](C)Nc1ncc2c(-c3ccc(C(=O)NC(C)C)nc3)cc([C@H]3CC[C@H](O)CC3)n2n1 [Compound 228, 5-(7-((1r,4S)-4-hydroxycyclohexyl)-2-(((S)-1-methoxypropan-2-yl)amino)pyrrolo[2,1-f][1,2,4]triazin-5-yl)-N-isopropylpicolinamide]
AXL
  IC50: 0.1 to 1 µM
MERTK
  IC50: ≤ 0.1 µM
  FLT3/Mer ratio (FLT3 IC50/Mer IC50): +++ (“+++” represents a ratio of >100)

## COC[C@H](C)Nc1ncc2c(-c3ccc(CN4CCOCC4)nc3)cc([C@H]3CC[C@H](O)CC3)n2n1 [Compound 230]
AXL
  IC50: 0.1 to 1 µM
MERTK
  IC50: ≤ 0.1 µM
  FLT3/Mer ratio (FLT3 IC50/Mer IC50): +++ (“+++” represents a ratio of >100)

## COC[C@H](C)Nc1ncc2c(-c3cncc(C)c3)cc([C@H]3CC[C@H](O)CC3)n2n1 [Compound 231]
AXL
  IC50: 0.1 to 1 µM
MERTK
  IC50: ≤ 0.1 µM
  FLT3/Mer ratio (FLT3 IC50/Mer IC50): +++ (“+++” represents a ratio of >100)

## COC[C@H](C)Nc1ncc2c(-c3cncc(C(=O)N4CCCC4)c3)cc([C@H]3CC[C@H](O)CC3)n2n1 [Compound 232]
AXL
  IC50: 0.1 to 1 µM
MERTK
  IC50: ≤ 0.1 µM
  FLT3/Mer ratio (FLT3 IC50/Mer IC50): +++ (“+++” represents a ratio of >100)

## COC[C@H](C)Nc1ncc2c(-c3cncc(C(=O)N4CCOCC4)c3)cc([C@H]3CC[C@H](O)CC3)n2n1 [Compound 233]
AXL
  IC50: 0.1 to 1 µM
MERTK
  IC50: ≤ 0.1 µM
  FLT3/Mer ratio (FLT3 IC50/Mer IC50): +++ (“+++” represents a ratio of >100)

## COC[C@H](C)Nc1ncc2c(-c3cncc(C(=O)N4CCN(C)CC4)c3)cc([C@H]3CC[C@H](O)CC3)n2n1 [Compound 234]
AXL
  IC50: 0.1 to 1 µM
MERTK
  IC50: ≤ 0.1 µM
  FLT3/Mer ratio (FLT3 IC50/Mer IC50): +++ (“+++” represents a ratio of >100)

## COC[C@H](C)Nc1ncc2c(-c3cnn(CC(=O)NC(C)C)c3)cc([C@H]3CC[C@H](O)CC3)n2n1 [Compound 235]
AXL
  IC50: 0.1 to 1 µM
MERTK
  IC50: ≤ 0.1 µM
  FLT3/Mer ratio (FLT3 IC50/Mer IC50): +++ (“+++” represents a ratio of >100)

## COC[C@H](C)Nc1ncc2c(-c3cnn(CC(=O)N[C@H]4CCOC4)c3)cc([C@H]3CC[C@H](O)CC3)n2n1 [Compound 237]
AXL
  IC50: 0.1 to 1 µM
MERTK
  IC50: ≤ 0.1 µM
  FLT3/Mer ratio (FLT3 IC50/Mer IC50): +++ (“+++” represents a ratio of >100)

From patent US11040981B2, “Pyrrolotriazine compounds and methods of inhibiting TAM kinases” (Syros Pharmaceuticals, Inc., priority 2017, dated 2021)
